Earlier results on one molecule are cited in patent US20070275075A1, “Ezetimibe compositions” (priority 2006, published 2007).

Experiment in data set [1]: not given
This is another data set of the same source.

Consider `O=C1[C@H](CC[C@H](O)c2ccc(F)cc2)[C@@H](c2ccc(O)cc2)N1c1ccc(F)cc1` [Ezetimibe, 1-(4-fluorophenyl)-3(R)-[3-(4-fluorophenyl)-3(S)-hydroxypropyl]-4(S)-(4-hydroxyphenyl)-2-azetidinone], for which the “solubility in ethanol, methanol, and acetone” value (ethanol, methanol, acetone) was “freely to very soluble”. In addition, the solubility in water result (water) was “practically insoluble”. Besides, the “stability at ambient temperature” value in data set [1] is on record as “stable”.
